From article PMC9334755 (Cancer Biology & Medicine, 2021)

What was measured:
BTK C481A mutant = target: T1, BTK C481A mutant (Homo sapiens, UniProt Q06187, C481A); assay: Fluorescent labelling of BTK C481A mutant in HEK293 cells; format: cell-based; details: 1 h
T1 construct: expressed in transfected cells; host or cells: HEK293 (methods list HEK293T)
Source text: (§1) The antibodies to β-actin (5125), poly(ADP-ribose) polymerase (PARP) (9532S), cleaved caspase-3 (9661S), BTK (8547), PLCγ2(55512), ERK1/2 (9107), phospho-PLCγ2 (Tyr1217) (3871), phospho-BTK (Tyr223) (87457), and ERK1/2 pT202/pY204 (4377) were purchased from Cell Signaling Technology. An Annexin V-PE Apoptosis Detection Kit (555763), and PE mouse anti-human CD69 (555531), PE mouse anti-human CD3 (555340), and PE mouse anti-human CD19 (561741) were purchased from BD Bioscience. Dynabeads® Human T-Activator CD3/CD28 (11161D) was purchased from Life Technology. Goat anti-human IgM F(ab)2 (2022) was purchased from SouthernBiotech. An HTRF® KinEASE™-TK Kit (62TK0PEC) was purchased from Cisbio. […]
(§2) Cells were treated as indicated before the addition of a fluorescent probe (FL-SY-1530). […] After scanning, the gels were detected with Western blot.
(§3) Figure 2 Irreversible targeting of BTK by SY-1530. […] (B) The content of the compounds was measured with LC-MS/MS after incubation with BTK for 4 h. […] (D) DOHH2 cells were treated with various concentrations of FL-SY-1530 for 1 h, after which cells were lysed and analyzed by SDS-PAGE with the indicated antibodies and fluorescent gel scanning with a Typhoon imaging system. […] (F) HEK293 cells expressing wild-type or C481A mutant BTK were treated with FL-SY-1530 or FL-ibrutinib for 1 h, and the cells were then lysed and analyzed. […]

BTK wild-type = target: T2, BTK wild-type (Homo sapiens, UniProt Q06187); assay: Fluorescent labelling of wild-type BTK in HEK293 cells; format: cell-based; details: 1 h
T2 construct: expressed in transfected cells; host or cells: HEK293 (methods list HEK293T)
T2 sequence (Q06187 whole entry): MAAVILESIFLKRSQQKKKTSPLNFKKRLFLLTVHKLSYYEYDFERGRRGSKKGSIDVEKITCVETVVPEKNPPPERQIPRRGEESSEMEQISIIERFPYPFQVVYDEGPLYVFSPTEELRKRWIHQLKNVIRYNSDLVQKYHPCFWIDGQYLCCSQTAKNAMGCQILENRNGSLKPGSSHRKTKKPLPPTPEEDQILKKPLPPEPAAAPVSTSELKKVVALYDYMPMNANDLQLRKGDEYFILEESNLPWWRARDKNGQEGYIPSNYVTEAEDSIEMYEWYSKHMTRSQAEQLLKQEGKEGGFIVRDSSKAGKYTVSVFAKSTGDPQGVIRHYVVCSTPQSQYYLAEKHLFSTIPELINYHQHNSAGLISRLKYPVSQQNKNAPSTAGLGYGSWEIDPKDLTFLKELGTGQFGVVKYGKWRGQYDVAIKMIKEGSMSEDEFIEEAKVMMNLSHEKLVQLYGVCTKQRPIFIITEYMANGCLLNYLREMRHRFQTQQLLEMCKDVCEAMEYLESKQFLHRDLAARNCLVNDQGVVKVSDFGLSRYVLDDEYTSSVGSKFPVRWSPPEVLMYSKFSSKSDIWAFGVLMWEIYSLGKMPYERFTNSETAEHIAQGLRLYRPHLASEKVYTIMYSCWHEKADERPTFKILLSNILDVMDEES
Source text: as §1, §2, §3

T cell = assay: Cell viability assay (CellTiter-Blue), human T cells; format: cell-based; details: T-cell, read-out: IC50 (nM), growth of T cell
Method: (§4) Cells were seeded on 96-well plates (9,000 cells/well), cultured at 37 °C in 5% CO2 overnight, and incubated with different concentrations of compounds for 3 or 7 days. Then the cells were stained with CellTiter-Blue® reagent (Promega) for 4 h at 37 °C. The fluorescence signals were detected with a FlexStation 3, and the IC50 values of each compound were determined with GraFit software (Version 6.0).
(§5) CD19^+ B (>80% purity) and CD3^+ T (>90% purity) cells were purified with human B cell enrichment cocktail and human T cell enrichment cocktail (Stem Cell Technology), respectively. Cells were seeded on 12-well plates and incubated with different concentrations of BTK inhibitors for 1 h. B cells were stimulated with 50 µg/mL anti-human IgM F(ab′)2, and T cells were stimulated with 50 µg/mL anti-CD3/CD28 beads overnight. In the washout groups, the cell medium containing the indicated inhibitors was replaced with fresh medium before stimulation. Then cells were then incubated with anti-human CD69 for 1 h and analyzed with a Guava flow cytometer.

Pfeiffer = assay: Cell viability assay (CellTiter-Blue), Pfeiffer; format: cell-based, human; details: Homo sapiens; Pfeiffer cells; read-out: IC50 (nM), growth of Pfeiffer
Method: as §4

B cell = assay: Cell viability assay (CellTiter-Blue), human B cells; format: cell-based; details: B-cell, read-out: IC50 (nM), growth of B cell
Method: as §4, §5

TMD8 = assay: Cell viability assay (CellTiter-Blue), TMD8; format: cell-based, human; details: Homo sapiens, TMD8, read-out: IC50 (nM), growth of TMD8
Method: as §4

human peripheral B cells = assay: CD69 up-regulation in B cells after anti-IgM stimulation; format: cell-based
Method: as §5
(§6) Figure 4 SY-1530 blocks B-cell receptor signaling and induces apoptosis. (A–D) Human B and T cells were purified and incubated with different concentrations of BTK inhibitors for 1 h. B cells were stimulated with 50 μg/mL anti-human IgM F(ab′)2, and T cells were stimulated with 50 μg/mL anti-CD3/CD28 beads overnight directly or after washout of BTK inhibitors before stimulation. The percentage of CD69 positive cells was analyzed by flow cytometry. Data are shown as the mean ± SEM (n = 3). Statistical analysis was performed with Student’s t-test (*P < 0.05, **P < 0.01, ***P < 0.001). (E) Pfeiffer cells and Romas cells were preincubated with different concentrations of compounds for 1 h, washed with PBS, and then stimulated with anti-IgM/anti-IgG (10 μg/mL) for 10 min. Cells were lysed and analyzed by Western blot with the indicated antibodies. (F) Pfeiffer cells were treated with various concentrations of SY-1530 for 24 h. The cells were stained with both PE-Annexin and 7-AAD and analyzed by flow cytometry. Data are shown as the mean ± SEM (n = 3). Statistical analysis was performed with Student’s t-test (*P < 0.05, **P < 0.01). (G) Pfeiffer cells were incubated with BTK inhibitors in the presence of z-VAD-fmk (caspase inhibitor) or DMSO for 24 h. Cells were lysed and analyzed with specific antibodies.

TMD8 xenografts = assay: TMD8 tumor xenograft in SCID mice; format: in vivo
Method: TMD8 cells (1.0 × 10^7 cells in 100 µL of serum-free medium containing 40% Matrigel) were injected subcutaneously into SCID mice (6–8 weeks of age), and the tumor volume was monitored twice per week. […] The compounds were formulated in 0.5% methylcellulose containing 0.1% sodium lauryl sulfate. Tumor size and body weight were measured twice per week. All experiments were approved by the institutional animal care and use committee of Shouyao Holdings and were performed in accordance with the guidelines in the U.S. National Institutes of Health Guide for the Care and Use of Laboratory Animals (Approval No. CTA-2015063).
Figure 5 SY-1530 inhibits B-cell malignancy in vivo. (A–D) TMD8 cells were injected subcutaneously into SCID mice (6–8 weeks of age; 8 mice per group). […] Tumor size (A) and body weight (B) were measured […]. On the last day, mice were sacrificed 2.5 h after administration. LC-MS/MS was performed to measure the concentration of SY-1530 in plasma (C), and tumor samples were collected and analyzed with Western blot (D). QD represents administration once daily. Data are shown as mean ± SEM. Statistical analysis was performed with two-way analysis of variance (*P < 0.05; **P < 0.01; ***P < 0.001). […] Tumor size (E), body weight (F), SY-1530 concentration in the plasma (G), and protein expression in tumors (H) were measured. Data are shown as mean ± SEM. Statistical analysis was performed with two-way analysis of variance (*P < 0.05; **P < 0.01; ***P < 0.001).

human peripheral T cells = assay: CD69 up-regulation in T cells after anti-CD3/CD28 stimulation; format: cell-based
Method: as §5, §6

T1 sequence (Q06187 whole entry C481A): as the sequence (Q06187 whole entry) above, with C481A counted along it

Row | SMILES | Binding of labelled compound to BTK C481A mutant (BTK C481A mutant) | Binding of labelled compound to wild-type BTK (BTK wild-type) | IC50 (T cell) [nM] | IC50 (Pfeiffer) [nM] | IC50 (B cell) [nM] | IC50 (TMD8) [nM] | Up-regulation of CD69 in B cells after anti-IgM (human peripheral B cells; continuous exposure, 10 nM) | Up-regulation of CD69 in B cells after anti-IgM (human peripheral B cells; inhibitors washed out before BCR stimulation) | Mouse bodyweight (TMD8 xenografts; BID groups) | Tumor growth versus vehicle treated group (TMD8 xenografts; BID, SY-1530 30 or 10 mg/kg, ibrutinib 30 mg/kg) | Up-regulation of CD69 in T cells (human peripheral T cells; after washout of BTK inhibitors) | CD69 up-regulation after T cell receptor stimulation (human peripheral T cells; continuous exposure, 10 µM)
1 | CC1=CC(C)=[N+]2C1=Cc1ccc(CCC(=O)NCCN3CCN(CC=CC(=O)N4CCCC(n5nc(-c6ccc(Oc7ccccc7)cc6)c6c(N)ncnc65)C4)CC3)n1[B-]2(F)F (centres unmarked) [FL-ibrutinib, reference compound] | not the C481A mutant | bound the wild-type BTK | – | – | – | – | – | – | – | – | – | –
2 | C=CC(=O)N1CCC[C@@H](n2nc(-c3ccc(Oc4ccccc4)cc3)c3c(N)ncnc32)C1 [ibrutinib, reference compound] | – | – | 1000 to 10000 | 45.9 | 0.85 | 17.3 | completely abolished | blocked | moderate decrease | dramatically lower | not affected | significantly abrogated
3 | CC1=CC(C)=[N+]2C1=Cc1ccc(CCC(=O)NCCN3CCN(CC=CC(=O)N4CCC(n5nc(-c6ccc(Oc7ccccc7)cc6)c(C(N)=O)c5N)C4)CC3)n1[B-]2(F)F (centres unmarked) [FL-SY-1530] | not the C481A mutant | bound the wild-type BTK | – | – | – | – | – | – | – | – | – | –
